Laboratory results as given in ChEMBL document CHEMBL3390836, “Mannich- and LedererManasse-based analogues of the natural product S-(+)-curcuphenol as cancer proliferation and migration inhibitors” (Medchemcomm, 2012).

Assays:
[1] = Cytotoxicity against human EKVX cells assessed as cell growth at 10 uM after 48 hrs by SRB assay relative to control; type: functional; conditions: read-out: Activity
SNB-19 = assay: Cytotoxicity against human SNB19 cells assessed as cell growth at 10 uM after 48 hrs by SRB assay relative to control; type: functional; conditions: SNB-19, 48 h, read-out: Activity
TK-10 = assay: Cytotoxicity against human TK10 cells assessed as cell growth at 10 uM after 48 hrs by SRB assay relative to control; type: functional; conditions: TK-10, 48 h, read-out: Activity
T47D = assay: Cytotoxicity against human T47D cells assessed as cell growth at 10 uM after 48 hrs by SRB assay relative to control; type: functional; conditions: read-out: Activity
MDA-MB-231 [2] = assay: Cytotoxicity against human MDA-MB-231 cells assessed as cell growth at 10 uM after 48 hrs by SRB assay relative to control; type: functional; conditions: MDA-MB-231, 48 h, read-out: Activity
NCI-H322M = assay: Cytotoxicity against human NCI-H322M cells assessed as cell growth at 10 uM after 48 hrs by SRB assay relative to control; type: functional; conditions: read-out: Activity
HT-29 = assay: Cytotoxicity against human HT-29 cells assessed as cell growth at 10 uM after 48 hrs by SRB assay relative to control; type: functional; conditions: HT-29, 48 h, read-out: Activity
MDA-MB-231 [3] = assay: Antimigratory activity against human MDA-MB-231 cells after 24 hrs by wound-healing assay; type: functional, cell-based; conditions: MDA-MB-231, 24 h
CCRF-CEM = assay: Cytotoxicity against human CCRF-CEM cells assessed as cell growth at 10 uM after 48 hrs by SRB assay relative to control; type: functional; conditions: read-out: Activity
KM12 = assay: Cytotoxicity against human KM12 cells assessed as cell growth at 10 uM after 48 hrs by SRB assay relative to control; type: functional; conditions: KM12, 48 h, read-out: Activity
[4] = Cytotoxicity against human UACC62 cells assessed as cell growth at 10 uM after 48 hrs by SRB assay relative to control; type: functional; conditions: UACC-62, 48 h, read-out: Activity
[5] = Cytotoxicity against human PC3 cells assessed as cell growth at 10 uM after 48 hrs by SRB assay relative to control; type: functional; conditions: PC-3, 48 h, read-out: Activity
[6] = Cytotoxicity against human HCT116 cells assessed as cell growth at 10 uM after 48 hrs by SRB assay relative to control; type: functional; conditions: HCT-116, 48 h, read-out: Activity
SK-MEL-28 = assay: Cytotoxicity against human SK-MEL-28 cells assessed as cell growth at 10 uM after 48 hrs by SRB assay relative to control; type: functional; conditions: SK-MEL-28, 48 h, read-out: Activity
NCI-H23 = assay: Cytotoxicity against human NCI-H23 cells assessed as cell growth at 10 uM after 48 hrs by SRB assay relative to control; type: functional; conditions: NCI-H23, 48 h, read-out: Activity
HCC 2998 = assay: Cytotoxicity against human HCC2998 cells assessed as cell growth at 10 uM after 48 hrs by SRB assay relative to control; type: functional; conditions: HCC 2998, 48 h, read-out: Activity
LOX IMVI = assay: Cytotoxicity against human LOXIMVI cells assessed as cell growth at 10 uM after 48 hrs by SRB assay relative to control; type: functional; conditions: read-out: Activity
MDA-MB-231 [7] = assay: Cytotoxicity against human MDA-MB-231 cells assessed as growth inhibition after 24 hrs by MTT assay; type: cell-based; conditions: MDA-MB-231, 24 h
MCF7 = assay: Cytotoxicity against human MCF7 cells assessed as cell growth at 10 uM after 48 hrs by SRB assay relative to control; type: functional; conditions: MCF7, 48 h, read-out: Activity
[8] = Cytotoxicity against human HCT15 cells assessed as cell growth at 10 uM after 48 hrs by SRB assay relative to control; type: functional; conditions: HCT-15, 48 h, read-out: Activity
IGROV-1 = assay: Cytotoxicity against human IGROV1 cells assessed as cell growth at 10 uM after 48 hrs by SRB assay relative to control; type: functional; conditions: IGROV-1, 48 h, read-out: Activity
[9] = Cytotoxicity against human UACC257 cells assessed as cell growth at 10 uM after 48 hrs by SRB assay relative to control; type: functional; conditions: UACC-257, 48 h, read-out: Activity
786-0 = assay: Cytotoxicity against human 786-0 cells assessed as cell growth at 10 uM after 48 hrs by SRB assay relative to control; type: functional; conditions: 786-0, 48 h, read-out: Activity
ACHN = assay: Cytotoxicity against human ACHN cells assessed as cell growth at 10 uM after 48 hrs by SRB assay relative to control; type: functional; conditions: read-out: Activity
[10] = Cytotoxicity against human OVCAR3 cells assessed as cell growth at 10 uM after 48 hrs by SRB assay relative to control; type: functional; conditions: OVCAR-3, 48 h, read-out: Activity
M14 = assay: Cytotoxicity against human M14 cells assessed as cell growth at 10 uM after 48 hrs by SRB assay relative to control; type: functional; conditions: M14, 48 h, read-out: Activity
SF-539 = assay: Cytotoxicity against human SF539 cells assessed as cell growth at 10 uM after 48 hrs by SRB assay relative to control; type: functional; conditions: SF-539, 48 h, read-out: Activity
SF-295 = assay: Cytotoxicity against human SF295 cells assessed as cell growth at 10 uM after 48 hrs by SRB assay relative to control; type: functional; conditions: SF-295, 48 h, read-out: Activity
SN12C = assay: Cytotoxicity against human SN12C cells assessed as cell growth at 10 uM after 48 hrs by SRB assay relative to control; type: functional; conditions: read-out: Activity
NCI-H460 = assay: Cytotoxicity against human NCI-H460 cells assessed as cell growth at 10 uM after 48 hrs by SRB assay relative to control; type: functional; conditions: NCI-H460, 48 h, read-out: Activity
RPMI-8226 = assay: Cytotoxicity against human RPMI8226 cells assessed as cell growth at 10 uM after 48 hrs by SRB assay relative to control; type: functional; conditions: RPMI-8226, 48 h, read-out: Activity
MDA-MB-435 = assay: Cytotoxicity against human MDA-MB-435 cells assessed as cell growth at 10 uM after 48 hrs by SRB assay relative to control; type: functional; conditions: MDA-MB-435, 48 h, read-out: Activity
HOP-62 = assay: Cytotoxicity against human HOP62 cells assessed as cell growth at 10 uM after 48 hrs by SRB assay relative to control; type: functional; conditions: HOP-62, 48 h, read-out: Activity
A549 = assay: Cytotoxicity against human A549 cells assessed as cell growth at 10 uM after 48 hrs by SRB assay relative to control; type: functional; conditions: A549, 48 h, read-out: Activity
SNB-75 = assay: Cytotoxicity against human SNB75 cells assessed as cell growth at 10 uM after 48 hrs by SRB assay relative to control; type: functional; conditions: SNB-75, 48 h, read-out: Activity
K562 = assay: Cytotoxicity against human K562 cells assessed as cell growth at 10 uM after 48 hrs by SRB assay relative to control; type: functional; conditions: K562, 48 h, read-out: Activity

Row | SMILES | growth at 10 µM [1] | growth at 10 µM (SNB-19) | growth at 10 µM (TK-10) | growth at 10 µM (T47D) | growth at 10 µM (MDA-MB-231 [2]) | growth at 10 µM (NCI-H322M) | growth at 10 µM (HT-29) | IC50 (MDA-MB-231 [3]) | growth at 10 µM (CCRF-CEM) | growth at 10 µM (KM12) | growth at 10 µM [4] | growth at 10 µM [5] | growth at 10 µM [6] | growth at 10 µM (SK-MEL-28) | growth at 10 µM (NCI-H23) | growth at 10 µM (HCC 2998) | growth at 10 µM (LOX IMVI) | IC50 (MDA-MB-231 [7]) | growth at 10 µM (MCF7) | growth at 10 µM [8] | further results
1 | CC(C)=CCC[C@H](C)c1ccc(C)c2c1OCN(CCCCCO)C2 | 102% | 88.8% | 73.7% | 88.1% | 93.4% | 102% | 27.2% | 10 µM | 96% | 104% | 82.8% | 68.6% | 68.6% | 115% | 91.3% | 73.5% | 77.6% | > 20 µM | 88.7% | 94% | growth at 10 µM (IGROV-1): 90.4%; growth at 10 µM [9]: 78.4%; growth at 10 µM (786-0): 69.5%; growth at 10 µM (ACHN): 94.1%; growth at 10 µM [10]: 99.7%; growth at 10 µM (M14): 84.2%; growth at 10 µM (SF-539): 84.5%; growth at 10 µM (SF-295): 110%; growth at 10 µM (SN12C): 78.6%; growth at 10 µM (NCI-H460): 81.1%; growth at 10 µM (RPMI-8226): 76.7%; growth at 10 µM (MDA-MB-435): 97.1%; growth at 10 µM (HOP-62): 92.5%; growth at 10 µM (A549): 82.5%; growth at 10 µM (SNB-75): 85.6%; growth at 10 µM (K562): 31.1%
2 | CC(C)=CCC[C@H](C)c1ccc(C)c2c1OCN(CCCCC(=O)O)C2 | 102% | 92.7% | 86.1% | 95.4% | 91.8% | 112% | 83.3% | 29.9 µM | 93.2% | 107% | 79.7% | 92.3% | 88.6% | 115% | 95.1% | 102% | 90.2% | > 20 µM | 92.5% | 92.3% | growth at 10 µM (IGROV-1): 108%; growth at 10 µM [9]: 89.5%; growth at 10 µM (786-0): 82.6%; growth at 10 µM (ACHN): 98.8%; growth at 10 µM [10]: 112%; growth at 10 µM (M14): 92.5%; growth at 10 µM (SF-539): 91.8%; growth at 10 µM (SF-295): 102%; growth at 10 µM (SN12C): 97.6%; growth at 10 µM (NCI-H460): 105%; growth at 10 µM (RPMI-8226): 92.3%; growth at 10 µM (MDA-MB-435): 99.4%; growth at 10 µM (HOP-62): 94.6%; growth at 10 µM (A549): 101%; growth at 10 µM (SNB-75): 91.8%; growth at 10 µM (K562): 87.5%
